# Test results from patent publication US4100346A, “Certain 7(o-amino-methyl- or methylaminomethylphenyl- or cyclohexadienyl- or thienylacetamide)-3[1-carboxymethyl-(or ethyl- or propyl-)-tetrazol-5-ylthiomethyl]-3-cephem-4-carboxylic acids” (Bristol-Myers Company, priority 1976, dated 1978).
# Like-named read-outs stand apart in the source and are kept apart here.
# Tests used:
# Staphylococcus Aureus = experiment: Effect of inoculum size on susceptibility of Staphylococcus aureus; type: cell-based; conditions: for MICB /MICA: MIC at 10^6 over MIC at 10^2 organisms
# [1] = target: β-lactamase Class I Type a, Enterobacter cloacae 214 (Enterobacter cloacae, UniProt P05364); type: biochemical
# Sequence of β-lactamase Class I Type a, Enterobacter cloacae 214 (P05364 21-381): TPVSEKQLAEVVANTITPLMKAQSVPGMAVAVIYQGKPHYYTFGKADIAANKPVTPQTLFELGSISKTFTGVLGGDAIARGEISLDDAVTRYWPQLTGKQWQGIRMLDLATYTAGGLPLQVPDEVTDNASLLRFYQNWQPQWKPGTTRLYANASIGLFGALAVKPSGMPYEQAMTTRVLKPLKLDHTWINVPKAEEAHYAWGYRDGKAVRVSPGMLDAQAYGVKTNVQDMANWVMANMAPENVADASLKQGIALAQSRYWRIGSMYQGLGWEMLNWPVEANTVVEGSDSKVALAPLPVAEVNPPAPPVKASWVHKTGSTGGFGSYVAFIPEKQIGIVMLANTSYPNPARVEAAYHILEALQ
# Experimental: (§1) Miscellaneous. Methods for determining bactericidal activity and susceptibility to cell-free β-lactamase were those previously used; Leitner et al., BL-S640, A Cephalosporin With a Broad Spectrum of Antibacterial Activity: Properties in vitro, Antimicrob. Agents Chemother.
# (§2) Susceptibility to β-lactamase. Susceptibility to enzymic hydrolysis was assessed by determining relative rates of hydrolysis by cell-free preparations of various β-lactamases (Table 6).
# [2] = target: β-lactamase Class I Type b, Escherichia coli 719 (Escherichia coli, UniProt P00811); type: biochemical
# Sequence of β-lactamase Class I Type b, Escherichia coli 719 (P00811 20-377): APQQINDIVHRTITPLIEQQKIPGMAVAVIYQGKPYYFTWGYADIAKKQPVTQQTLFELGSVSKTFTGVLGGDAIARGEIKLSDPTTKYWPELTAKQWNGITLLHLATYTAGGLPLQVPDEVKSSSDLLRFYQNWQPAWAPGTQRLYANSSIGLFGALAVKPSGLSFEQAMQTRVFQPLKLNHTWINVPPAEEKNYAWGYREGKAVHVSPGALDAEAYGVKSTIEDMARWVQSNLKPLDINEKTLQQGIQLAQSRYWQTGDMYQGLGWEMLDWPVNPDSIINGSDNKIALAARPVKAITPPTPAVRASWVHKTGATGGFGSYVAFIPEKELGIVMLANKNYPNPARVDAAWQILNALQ
# Experimental: as §1, §2
# [3] = test system: β-lactamase Class II Type a, Proteus mirabilis 1266; type: biochemical
# Experimental: as §1, §2
# [4] = target: T1, β-lactamase Class III Type a, Escherichia coli TEM (Escherichia coli, UniProt P62593); type: biochemical
# T1 construct: cell-free preparations of various β-lactamases; endogenous in cells; host or cells: Escherichia coli strain TEM
# T1 sequence (P62593 24-286 limits assumed): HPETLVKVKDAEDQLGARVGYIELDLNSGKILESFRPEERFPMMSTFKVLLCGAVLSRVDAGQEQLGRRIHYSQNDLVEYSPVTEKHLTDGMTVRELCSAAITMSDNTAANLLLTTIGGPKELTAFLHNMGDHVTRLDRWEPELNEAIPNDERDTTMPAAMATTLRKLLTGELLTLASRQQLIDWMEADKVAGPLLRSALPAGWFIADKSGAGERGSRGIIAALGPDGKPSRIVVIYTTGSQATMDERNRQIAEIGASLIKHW
# Experimental: as §1, §2
# [5] = test system: β-lactamase Class IV Type a, Klebsiella pneumoniae 53; type: biochemical
# Experimental: as §1, §2
# [6] = test system: β-lactamase Class IV Type b, Klebsiella pneumoniae 1169; type: biochemical
# Experimental: as §1, §2
# Citrobacter sp. = experiment: Intramuscular treatment of systemically infected mice; type: in vivo; conditions: im, Citrobacter sp. strain 1, challenge 5×10^6 -2×10^7, treated 1 and 3.5 hours after infection, read-out: PD50 /treatment
# Text: (§3) Treatment of Systemically Infected Mice. The procedures were identical with those published previously [Leitner et al., BL-S640, a Cephalosporin With a Broad Spectrum of Antibacterial Activity: Bioavailability and Therapeutic Properties in Rodents, Antimicrob. Agents Chemother. 7:306-310, (1975)], except that:
# (§4) (a) the hog gastric mucin used in infections with Staphylococcus aureus No. 2 was purchased from American Laboratories, Inc., Omaha, Neb. (lot No. 154163) and b) that the medium used to suspend all other organisms contained 3% (rather than 4%) hog gastric mucin (type 1701W, Wilson Laboratories, Inc., Park Forest South, Ill.).
# (§5) *Animals were treated twice; 1 and 3.5 hours after infection.
# Escherichia coli [7] = experiment: as above; type: in vivo; conditions: im, 3.5 h, read-out: PD50 /treatment
# Text: as §3, §4, §5
# Klebsiella pneumoniae [8] = experiment: as above; type: in vivo; conditions: im, 3.5 h, read-out: PD50 /treatment
# Text: as §3, §4, §5
# Proteus mirabilis = experiment: as above; type: in vivo; conditions: im, 3.5 h, read-out: PD50 /treatment
# Text: as §3, §4, §5
# Proteus morganii = experiment: as above; type: in vivo; conditions: Morganella morganii, im, 3.5 h, read-out: PD50 /treatment
# Text: as §3, §4, §5
# Proteus rettgeri = experiment: as above; type: in vivo; conditions: Providencia rettgeri, im, Proteus rettgeri strain 4, challenge 2×10^6 -3×10^6, treated 1 and 3.5 hours after infection, read-out: PD50 /treatment
# Text: as §3, §4, §5
# Proteus vulgaris = experiment: as above; type: in vivo; conditions: im, 3.5 h, read-out: PD50 /treatment
# Text: as §3, §4, §5
# Providencia stuartii = experiment: as above; type: in vivo; conditions: im, 3.5 h, read-out: PD50 /treatment
# Text: as §3, §4, §5
# Edwardsiella tarda = experiment: Growth inhibitory activity, antibiotic dilution technique; conditions: read-out: Minimum inhibitory concentration
# Arizona hinshawii = experiment: as above; conditions: Salmonella enterica, read-out: Minimum inhibitory concentration
# Escherichia coli [9] = experiment: Effect of inoculum size on susceptibility of Enterobacteriaceae
# Klebsiella pneumoniae [10] = experiment: as above
smiles,measurement,setting,value
CC(=O)OCC1=C(C(=O)O)N2C(=O)[C@@H](NC(=O)Cc3cccs3)[C@H]2SC1 [Cephalothin],effect of cell concentration on growth inhibitory activity,Staphylococcus Aureus,slightly
same,MICB /MICA,"Staphylococcus Aureus; Lacking penicillinase, 3 strains",1.0
same,MICB /MICA,"Staphylococcus Aureus; Penicillinase producer, 26 strains",2.2
same,Relative Rate of Hydrolysis (benzylpenicillin = 100),[1],2100
same,Relative Rate of Hydrolysis (benzylpenicillin = 100),[2],480
same,Relative Rate of Hydrolysis (benzylpenicillin = 100),[3],< 1
same,Relative Rate of Hydrolysis (benzylpenicillin = 100),[4],9
same,Relative Rate of Hydrolysis (benzylpenicillin = 100),[5],8
same,Relative Rate of Hydrolysis (benzylpenicillin = 100),[6],43
same,ED50,Citrobacter sp.,> 340 mg/kg
same,ED50,"Escherichia coli [7]; Escherichia coli strain 1, challenge 2×10^5 organisms, treated 1 and 3.5 hours after infection",42 mg/kg
same,ED50,"Escherichia coli [7]; Escherichia coli strain 8, challenge 6×10^5 -4×10^6, treated 1 and 3.5 hours after infection",97 mg/kg
same,ED50,"Escherichia coli [7]; Escherichia coli strain 9, challenge 7×10^3 -2×10^4, treated 1 and 3.5 hours after infection",180 mg/kg
same,ED50,"Klebsiella pneumoniae [8]; Klebsiella pneumoniae strain 1, challenge 4×10^4 -5×10^4, treated 1 and 3.5 hours after infection",94 mg/kg
same,ED50,"Klebsiella pneumoniae [8]; Klebsiella pneumoniae strain 7, challenge 9×10^2 -1×10^3, treated 1 and 3.5 hours after infection",> 380 mg/kg
same,ED50,"Proteus mirabilis; Proteus mirabilis strain 1, challenge 7×10^6 -9×10^6, treated 1 and 3.5 hours after infection",41 mg/kg
same,ED50,"Proteus mirabilis; Proteus mirabilis strain 5, challenge 9×10^5 -3×10^6, treated 1 and 3.5 hours after infection",11 mg/kg
same,ED50,"Proteus mirabilis; Proteus mirabilis strain 8, challenge 6×10^5 -4×10^6, treated 1 and 3.5 hours after infection",14 mg/kg
same,ED50,"Proteus morganii; Proteus morganii strain 1, challenge 1×10^5 -4×10^5, treated 1 and 3.5 hours after infection",> 350 mg/kg
same,ED50,"Proteus morganii; Proteus morganii strain 2, challenge 2×10^6 -3×10^6, treated 1 and 3.5 hours after infection",> 400 mg/kg
same,ED50,Proteus rettgeri,140 mg/kg
same,ED50,"Proteus vulgaris; Proteus vulgaris strain 1, challenge 1×10^6 -2×10^6, treated 1 and 3.5 hours after infection",11 mg/kg
same,ED50,"Proteus vulgaris; Proteus vulgaris strain 3, challenge 4×10^5, treated 1 and 3.5 hours after infection",17 mg/kg
same,ED50,"Providencia stuartii; Providencia stuartii strain 2, challenge 1×10^6 ×5×10^6, treated 1 and 3.5 hours after infection",> 380 mg/kg
same,ED50,"Providencia stuartii; Providencia stuartii strain 3, challenge 2×10^7, treated 1 and 3.5 hours after infection",160 mg/kg
same,MIC,Edwardsiella tarda,1 µg/mL
same,MIC,Arizona hinshawii,2.8 µg/mL
same,MIC,"Escherichia coli [9]; read-out: Minimum Inhibitory Concentration, Escherichia coli strain 1, A, Inoculum of 10^2 organisms",8 µg/mL
same,MIC,"Escherichia coli [9]; read-out: Minimum Inhibitory Concentration, Escherichia coli strain 1, B, Inoculum of 10^6 organisms",32 µg/mL
same,MIC,"Escherichia coli [9]; read-out: Minimum Inhibitory Concentration, Escherichia coli strain 2, A, Inoculum of 10^2 organisms",16 µg/mL
same,MIC,"Escherichia coli [9]; read-out: Minimum Inhibitory Concentration, Escherichia coli strain 2, B, Inoculum of 10^6 organisms",32 µg/mL
same,MIC,"Escherichia coli [9]; read-out: Minimum Inhibitory Concentration, Escherichia coli strain 3, A, Inoculum of 10^2 organisms",4 µg/mL
same,MIC,"Escherichia coli [9]; read-out: Minimum Inhibitory Concentration, Escherichia coli strain 3, B, Inoculum of 10^6 organisms",16 µg/mL
same,MIC,"Escherichia coli [9]; read-out: Minimum Inhibitory Concentration, Escherichia coli strain 4, A, Inoculum of 10^2 organisms",4 µg/mL
same,MIC,"Escherichia coli [9]; read-out: Minimum Inhibitory Concentration, Escherichia coli strain 4, B, Inoculum of 10^6 organisms",32 µg/mL
same,MIC,"Escherichia coli [9]; read-out: Minimum Inhibitory Concentration, Escherichia coli strain 5, A, Inoculum of 10^2 organisms",4 µg/mL
same,MIC,"Escherichia coli [9]; read-out: Minimum Inhibitory Concentration, Escherichia coli strain 5, B, Inoculum of 10^6 organisms",32 µg/mL
same,MIC,"Escherichia coli [9]; read-out: Minimum Inhibitory Concentration, Escherichia coli strain 6, A, Inoculum of 10^2 organisms",8 µg/mL
same,MIC,"Escherichia coli [9]; read-out: Minimum Inhibitory Concentration, Escherichia coli strain 6, B, Inoculum of 10^6 organisms",16 µg/mL
same,MIC,"Escherichia coli [9]; read-out: Minimum Inhibitory Concentration, Escherichia coli strain 7, A, Inoculum of 10^2 organisms",1 µg/mL
same,MIC,"Escherichia coli [9]; read-out: Minimum Inhibitory Concentration, Escherichia coli strain 7, B, Inoculum of 10^6 organisms",8 µg/mL
same,MIC,"Klebsiella pneumoniae [10]; read-out: Minimum Inhibitory Concentration, Klebsiella pneumoniae strain 1, A, Inoculum of 10^2 organisms",2 µg/mL
same,MIC,"Klebsiella pneumoniae [10]; read-out: Minimum Inhibitory Concentration, Klebsiella pneumoniae strain 1, B, Inoculum of 10^6 organisms",8 µg/mL
same,MIC,"Klebsiella pneumoniae [10]; read-out: Minimum Inhibitory Concentration, Klebsiella pneumoniae strain 2, A, Inoculum of 10^2 organisms",2 µg/mL
same,MIC,"Klebsiella pneumoniae [10]; read-out: Minimum Inhibitory Concentration, Klebsiella pneumoniae strain 2, B, Inoculum of 10^6 organisms",32 µg/mL
same,MIC,"Klebsiella pneumoniae [10]; read-out: Minimum Inhibitory Concentration, Klebsiella pneumoniae strain 3, A, Inoculum of 10^2 organisms",2 µg/mL
same,MIC,"Klebsiella pneumoniae [10]; read-out: Minimum Inhibitory Concentration, Klebsiella pneumoniae strain 3, B, Inoculum of 10^6 organisms",16 µg/mL
same,MIC,"Klebsiella pneumoniae [10]; read-out: Minimum Inhibitory Concentration, Klebsiella pneumoniae strain 4, A, Inoculum of 10^2 organisms",2 µg/mL
same,MIC,"Klebsiella pneumoniae [10]; read-out: Minimum Inhibitory Concentration, Klebsiella pneumoniae strain 4, B, Inoculum of 10^6 organisms",8 µg/mL
same,MIC,"Klebsiella pneumoniae [10]; read-out: Minimum Inhibitory Concentration, Klebsiella pneumoniae strain 5, A, Inoculum of 10^2 organisms",2 µg/mL
same,MIC,"Klebsiella pneumoniae [10]; read-out: Minimum Inhibitory Concentration, Klebsiella pneumoniae strain 5, B, Inoculum of 10^6 organisms",32 µg/mL
same,MIC,"Klebsiella pneumoniae [10]; read-out: Minimum Inhibitory Concentration, Klebsiella pneumoniae strain 6, A, Inoculum of 10^2 organisms",1 µg/mL
same,MIC,"Klebsiella pneumoniae [10]; read-out: Minimum Inhibitory Concentration, Klebsiella pneumoniae strain 6, B, Inoculum of 10^6 organisms",16 µg/mL
